Converted amounts (≈) assume the structure as drawn.

Consider one compound from patent US11364214B2, “Compositions and methods for treating eczema” (Dermala Inc., priority 2016, dated 2022).

Assay [1] has as its system S. aureus (ATCC 29213). Kind of assay: Time-kill assay (bactericidal activity). In kind it is cell-based. The method, then:
This inoculum preparation was used for all experiments. Time-kill assay: A time-kill assay was performed to monitor the bactericidal activity of propionic acid (PA). […] Assays were performed in 100 μl volumes in 96-well plates and incubated at 37° C. in a sealed bag to prevent evaporation. […] Bacterial growth was determined by counting CFUs. […] The assay was setup and evaluated as described above.

For assay [2], the system named is S. aureus (ATCC 29213). The assay is described as follows: Minimal inhibitory concentration (MIC) assay, microbroth dilution (CLSI M100-S22). Type of assay: cell-based. As to conditions: Staphylococcus aureus, ATCC29213; no esterase added; 10% DMSO; 16 hours at 37° C.; first well showing ≥90% reduction in growth; read-out: MIC against S. aureus.
Assay [3] has as its system S. aureus. As to conditions: Shu et al. 2013; Wang et al. 2014; cited from earlier work.

Broadly, the MIC is the smallest concentration in the dilution series that meets the test's criterion for growth inhibition. In the case of `CCC(=O)O` [PA, propionic acid], the “time after which bactericidal against S. aureus” value in assay [1] (4× the MIC (MIC 15 mM), sampled at 0, 1, 7, 24 hours, FIG. 2) stood at 7 h. The “time after which S. aureus is completely killed” value in assay [1] (4× the determined MIC, 0.2 mg/ml porcine liver esterase, sampled at 0, 1, 5, 24 hours, FIG. 4) was found to be 5 h. In addition, the minimal inhibitory concentration (MIC) in assay [2] is 15 mM (≈ 1110 µg/mL). Also, the “growth of S. aureus (literature)” value in assay [3] is listed as “inhibit growth of S. aureus”.
